Article PMC10933920, “Synthesis and Anti-Inflammatory Activity of Ferulic Acid-Sesquiterpene Lactone Hybrids” (Molecules, 2024)
Converted amounts (≈) assume the structure as drawn. “Also recorded” adds a separate entry of the source.

What was measured:
RAW264.7 cells = assay: CCK-8 cell viability (cytotoxicity) assay; type: cell-based, Mouse; conditions: for IC50: RAW264.7 cells, CCK-8, 24 h incubation, means of three independent experiments
Method: CCK-8 Cell Proliferation was used to confirm the non-cytotoxic dose of those derivatives in RAW264.7 cells. However, IC50 values of those compounds show visible difference in vitro (Table 1). Considering the safety of compound 6 in RAW264.7 cells, a follow-up experiment was carried out at the concentration of 2 μM.
The toxicity of those compounds was determined by the CCK-8 assay. RAW264.7 cells were seeded in a 96-well plate at a density of 2 × 10^5/mL and a volume of 100 μL/well. After incubation for 12 h at 37 °C, the cells were then incubated with compounds at concentrations of 1.25, 2.5, 5, 10, 20, 40 and 80 μM for 24 h, followed by the addition of 10 μL CCK-8 solution to each well, and the plates were further incubated for 2 h at 37 °C. The absorbance at a wavelength of 450 nm was measured using a microplate reader (Bio-Rad Laboratories, Inc., Hercules, CA, USA).

[1] = test system: TNF-α and IL-6 release from LPS-stimulated RAW264.7 cells; assay: ELISA of pro-inflammatory cytokine protein levels in culture supernatant; type: cell-based, Mouse; conditions: RAW264.7 cells pre-treated 6 h, LPS 24 h
[2] = test system: BLM-induced acute lung injury in C57BL/6J mice; assay: Bleomycin-induced acute lung injury model; type: in vivo; conditions: compound 6 10 mg/kg i.p. daily for 14 days
Method: To further confirm the anti-inflammation effect of compound 6 in vivo, we made the acute-lung-injury model in C57/6j mice using bleomycin. […] To further investigate the protective effect of 6 by BLM-induced ALI, the pathological changes in lung tissues were studied (Figure 5).
C57BL/6J mice (male) were purchased from Vital River Laboratories (Beijing, China). All procedures were conducted according to the Nankai University Guidelines on Animal Care, and the experimental protocol was approved by the Institutional Animal Protection Committee of the Nankai University (Tianjing, China, NO. 2022-SYDWLL-000342). Animals were sheltered under standard conditions with food and water provided ad libitum. Experiments were conducted on 8-week-old male mice, randomly divided into 4 groups: Control (Con), ALI (bleomycin), Dex (dexamethasone) and compound 6. For bleomycin-induced lung injury, mice were sedated, and a single dose of intratracheal bleomycin (4 mg/kg; Selleckchem, Houston, TX, USA) in sterile PBS. 6 was administered daily for 14 days via intraperitoneal injections (i.p) (100 μL/mouse of […] 6 in PBS). Dexamethasone (2 mg/kg) was administered orally. The mice were monitored and their weight was measured daily. After 14 days, the mice were killed with anesthetic overdose and exsanguinated by cutting the abdominal aorta before the collection of lungs.
Body weight variations were calculated from the measured weights at each time point (days 1–14), including before the sacrifice of the mice reaching the endpoints. To avoid a potential bias by studying the animals with the better outcomes, animals reaching endpoints were included in the calculation of the weight variation and survival rates.
Figure 4 Effect of compound 6 on body weight and survival after bleomycin-induced acute lung injury in mice. After bleomycin (4 mg/kg, 25 μL), mice were treated (i.p) daily with compound 6 (10 mg/kg, 100 μL) for 14 days. Body weight variations ((A), n = 12) and percentage (%) of mouse survival ((B), n = 5–12) were compared between the four groups. (Values are means ± SEM, ** p < 0.01). […]

[3] = Aqueous solubility measurement; type: physicochemical; conditions: for water solubility (in words): pH 7.0; for solubility: thermodynamic from solid, deionized water, pH = 7.0, at least in duplicate, read-out: Aqueous Solubility IC50
Method: PTL, MCL and compounds 1–6 (0.1, 1, 10 mg) were dissolved in deionized water (pH = 7.0) until the solution was clear. The assays were measured at least in duplicate.

[4] = Release of prodrug into active drug in HEPES buffer; type: physicochemical; conditions: HEPES buffer pH 7.4, 37 °C, HPLC; read-out: T1/2 (conversion of prodrug 6 into compound 3) (converted)
Method: The Michael addition reaction has emerged as an effective synthetic strategy to improve the water solubility and pharmaceutical efficacy of active drug compounds [34]. […] In addition, the use of Michael addition products can also serve to modulate the release rate of active drugs, thereby enabling better control over the pharmacological effects of such compounds. Thus, the experiment of converting the prodrug compound (6) into compound (3) was evaluated in a HEPES buffer solution with a pH of 7.4. Compound 6 rapidly releases compound 3 under these conditions. (Figure 6, T1/2 = 2 h).
A total of 10 mg of compound 6 was dissolved in 10 mL MeCN. A 0.5 mL volume of compound 6 solution was placed in 49.5 mL of HEPES at pH 7.4. The tubes were then incubated in a bath incubator at 37 °C. Samples were removed after 10 s, and the concentration of compound 6 and 3 was analyzed by HPLC.
Figure 6 The stability of compound 6 in pH7.4 HEPES buffer.

[5] = test system: LPS-induced expression of IL-1β, IL-6 and iNOS in RAW264.7 cells; assay: qRT-PCR of pro-inflammatory cytokine gene expression after LPS stimulation; type: cell-based, Mouse; conditions: RAW264.7 cells pre-treated 2 h, LPS 1 μg/mL 6 h, RT-PCR, 2 μM
Source text: Inflammatory factors, including TNF-α, IL-1β, and IL-6, are involved in and accelerate inflammatory responses during inflammatory progression. In addition, iNOS (Nitric oxide synthase)-derived monocytes contribute to macrophage recruitment in the lung, and pulmonary-derived iNOS is detrimental during acute lung injury. Moreover, observations indicate that inhibiting iNOS can reduce inflammation in the early stages of the bleomycin model of acute lung injury. Therefore, the effective suppression of inflammation is considered an effective marker for the treatment of inflammation. To establish the efficacy of those compounds suppressing inflammatory procession, we tested pro-inflammatory cytokines that are released from the RAW264.7 cells upon LPS stimulation.
Total RNA was isolated using TRIzol reagent (Takara, Ōtsu-shi, Japan) and then transcribed into cDNA using a transcriptor cDNA synthesis kit (TransGen Biotech, Beijing, China) according to the manufacturer’s instructions. Quantitative real-time PCR was performed with TransStart® Green qPCR SuperMix (TransGen Biotech, China). The conditions for the real-time PCR reaction were as follows: 94 °C, 30 s; 94 °C, 5 s; 60 °C, 30 s; 40 cycles. The primers for this research are listed in Supplementary Material Table S1.
Figure 2 Anti-inflammation of 1–6 in RAW264.7 Cells. Expression of proinflammatory cytokines in RAW264.7 cells use RT-PCR. Cells (1 × 10^6 cells/well) were seeded into 6-well plates and then pro-treated with 1–6 for 2 h. Cells were then challenged with LPS (1 μg/mL) or medium alone for 6 h and Total RNA was extracted from cells with Trizol reagent. TNF-α: tumor necrosis factor-α; IL-1β:Interleukin-1β; L-6: Interleukin-6. Data were analyzed by One-Way ANOVA. *: p < 0.05; **: p < 0.01. ns: no significance.

[6] = set-up: method as in PMID 30208745; conditions: cited from earlier work

solubility [3] [µg/mL]	SMILES	IC50 (RAW264.7 cells; Mus musculus, RAW264.7, 24 h) [µM]	gene expression of pro-inflammatory cytokines (IL-1β, IL-6, iNOS) [5]	further results
2500	COc1cc(/C=C/C(=O)O[C@]2(C)CCC3=C(C)CC[C@@H]4[C@H](OC(=O)[C@H]4CN(C)C)[C@H]32)ccc1O.O=C(O)CC(O)(CC(=O)O)C(=O)O [Compound 5, (3R,3aS,9R,9aS,9bS)-3-((dimethylamino)methyl)-6,9-dimethyl-2-oxo-2,3,3a,4,5,7,8,9,9a,9b-decahydroazuleno[4,5-b]furan-9-yl (E)-3-(4-hydroxy-3-methoxyphenyl)acrylate 2-hydroxypropane-1,2,3-tricarboxylate]	28.8 ± 0.21	neither the amide derivative of FA-PTL hybrid 4 or 5 (the prodrug of 2 containing citric acid) showed anti-inflammation activities	water solubility (in words) [3]: significantly improved water solubility
< 10	COc1cc(C=CC(=O)NCC2=CCCC3(C)OC3C3OC(=O)C(CN(C)C)C3CC2)ccc1O [Compound 4, (E)-N-(((1aR,7aS,8R,10aS,10bS,E)-8-((dimethylamino)methyl)-1a-methyl-9-oxo-1a,2,3,6,7,7a,8,9,10a,10b-decahydrooxireno[2′,3′:9,10]cyclodeca[1,2-b]furan-5-yl)methyl)-3-(4-hydroxy-3-methoxyphenyl)acrylamide]	38.4 ± 1.14	neither the amide derivative of FA-PTL hybrid 4 or 5 (the prodrug of 2 containing citric acid) showed anti-inflammation activities	melting point: 132 to 134 °C
< 10	COc1cc(/C=C/C(=O)O[C@]2(C)CCC3=C(C)CC[C@@H]4[C@H](OC(=O)[C@H]4CN(C)C)[C@H]32)ccc1O [Compound 2, (3R,3aS,9R,9aS,9bS)-3-((dimethylamino)methyl)-6,9-dimethyl-2-oxo-2,3,3a,4,5,7,8,9,9a,9b-decahydroazuleno[4,5-b]furan-9-yl (E)-3-(4-hydroxy-3-methoxyphenyl)acrylate]	–	decreased activity compared with compound 1	IC50 (RAW264.7 cells): 19.6 ± 0.21 µM
50 (≈ 201 µM)	C=C1C(=O)O[C@H]2[C@H]1CC/C(C)=C/CC[C@@]1(C)O[C@@H]21 [PTL, Parthenolide, reference compound]	5.35 ± 0.06	–	–
–	C/C1=C\CC[C@@]2(C)O[C@@H]2[C@H]2OC(=O)[C@H](CN(C)C)[C@@H]2CC1 [DMAPT]	–	–	solubility relative to parent compound parthenolide [6]: more than 1000 times
< 10	C=C1C(=O)OC2C1CCC(COC(=O)C=Cc1ccc(O)c(OC)c1)=CCCC1(C)OC21 [Compound 3, ((1aR,7aS,10aS,10bS,E)-1a-methyl-8-methylene-9-oxo-1a,2,3,6,7,7a,8,9,10a,10b-decahydrooxireno[2′,3′:9,10]cyclodeca[1,2-b]furan-5-yl)methyl (E)-3-(4-hydroxy-3-methoxyphenyl)acrylate]	3.04 ± 0.08	reduce the gene expression levels of IL-1β, IL-6 and iNOS significantly; also recorded: comparable activities	melting point: 96 to 98 °C
50 (≈ 201 µM)	C=C1C(=O)O[C@H]2[C@H]1CCC(C)=C1CC[C@@](C)(O)[C@@H]12 [MCL, micheliolide, reference compound]	9.03 ± 0.16	–	–
< 10	C=C1C(=O)O[C@@H]2C3C(=C(C)CC[C@@H]12)CC[C@@]3(C)OC(=O)/C=C/c1ccc(O)c(OC)c1 (stereo partly drawn) [Compound 1, (3aS,9R,9bS)-6,9-dimethyl-3-methylene-2-oxo-2,3,3a,4,5,7,8,9,9a,9b-decahydroazuleno[4,5-b]furan-9-yl (E)-3-(4-hydroxy-3-methoxyphenyl)acrylate]	6.14 ± 0.09	reduce the gene expression levels of IL-1β, IL-6 and iNOS significantly; also recorded: comparable activities	–
–	COc1cc(/C=C/C(=O)O)ccc1O [FA, Ferulic acid]	> 100	–	–

SMILES	solubility [3] [µg/mL]	IC50 (RAW264.7 cells; Mus musculus, RAW264.7, 24 h) [µM]	gene expression of pro-inflammatory cytokines (IL-1β, IL-6, iNOS) [5]	further results
COc1cc(C=CC(=O)OCC2=CCCC3(C)OC3C3OC(=O)C(CN(C)C)C3CC2)ccc1O [Compound 6, ((1aR,7aS,8R,10aS,10bS,E)-8-((dimethylamino)methyl)-1a-methyl-9-oxo-1a,2,3,6,7,7a,8,9,10a,10b-decahydrooxireno[2′,3′:9,10]cyclodeca[1,2-b]furan-5-yl)methyl (E)-3-(4-hydroxy-3-methoxyphenyl)acrylate 2-hydroxypropane-1,2,3-tricarboxylate]	2500 (≈ 5150 µM)	6.95 ± 1.09	comparable activities; also recorded: could significantly reduce inflammation of RAW264.7 cells induced by LPS	decline in cytotoxic effect compared to parent compound 3 (RAW264.7 cells; RAW264.7 cell line, versus compound 3): 2 fold; protein levels / release of pro-inflammatory cytokines (TNF-α and) [1]: could also inhibit the release of pro-inflammatory cytokines in vitro; survival rate [2]: did not reverse the survival rate; acute lung injury / lung pathology (H&E: inflammatory cell infiltration, edema, alveolar structure) ([2]; 10 mg/kg): reduced inflammatory cell infiltration and edema in lung tissue of mice, and improved alveolar structure; also recorded: ameliorated inflammatory cell infiltration and edema in lung tissue; also recorded: could significantly decrease the acute lung injury induced by bleomycin; body weight loss ([2]; 10 mg/kg): prevented the weight loss significantly; water solubility (in words) [3]: outstanding water solubility; also recorded: significantly improved water solubility; also recorded: good water solubility; also recorded: more soluble than the reference compound 3; half-life at 10 µg/mL [4]: 120 min
